Source: US20070093520A1, “Method of treatment of diarrhea-predominant irritable bowel syndrome in a subject” (priority 2005, published 2007)

Test system: diarrhea-predominant IBS subjects
Assay: 3007 Study: open-label 52-week safety study, adverse events and withdrawals
Settings: C/C group

Cc1nccn1C[C@H]1CCc2c(c3cccc4c3n2CCC4)C1=O [cilansetron, (R)-(−)-4,5,6,8,9,10-hexahydro-10-[(2-methyl-1H-imidazol-1-yl)methyl]-11H-pyrido-[3,2,1-jk]-carbazol-11-one]
3 (1%) n (%): TEAE: Pharyngitis | TEAE: Pruritus NEC | TEAE: Pruritus NOS | TEAE: Renal Lithiasis | TEAE: Rhinitis Allergic NOS | TEAE: Rhinitis NOS | TEAE: Soft Tissue Neoplasms Benign NEC | TEAE: Upper Respiratory Tract Signs and Symptoms
13 (5%) n (%): TEAE: Renal and Urinary Disorders | TEAE: Vascular Disorders
4 (2%) n (%): TEAE: Oedema NEC | TEAE: Oedema Peripheral | TEAE: Rash NOS | TEAE: Rashes, Eruptions and Exanthems NEC | TEAE: Seasonal Allergy
6 (2%) n (%): TEAE: Paranasal Sinus Disorders (Excl Infections and Neoplasms)
2 (2%) n (%): TEAE: Prostate and Seminal Vesicles Infections and Inflammations* | TEAE: Prostatitis*
2 (<1%) n (%): TEAE: Labyrinthitis NOS | TEAE: Lacrimal Disorders | TEAE: Laryngeal and Adjacent Sites Disorders NEC (Excl Infections and Neoplasms) | TEAE: Laryngitis NOS | TEAE: Leukopenia NOS | TEAE: Leukopenias NEC | TEAE: Lipoma NOS | TEAE: Pain NOS | TEAE: Palpitations | TEAE: Peripheral Vascular Disorders NEC | TEAE: Purine Metabolism Disorders NEC | TEAE: Pyrexia | TEAE: Rate and Rhythm Disorders NEC | TEAE: Skin Neoplasms Malignant and Unspecified (Excl Melanoma) | TEAE: Urinary Frequency | TEAE: Varicose Vein Ruptured | TEAE: Varicose Veins Non-Site Specific
11 (4%) n (%): TEAE: Metabolism and Nutrition Disorders
5 (2%) n (%): TEAE: Pain and Discomfort NEC | TEAE: Sinus Congestion | TEAE: Urinary Abnormalities
28 (11%) n (%): TEAE: Respiratory, Thoracic and Mediastinal Disorders
9 (4%) n (%): TEAE: Neoplasms Benign, Malignant and Unspecified (Incl Cysts and Polyps)
15 (6%) n (%): TEAE: Psychiatric Disorders
1 (<1%) n (%): TEAE: Leiomyoma NOS | TEAE: Lid, Lash and Lacrimal Structural Disorders (Excl Congenital) | TEAE: Lipid Metabolism Disorder NOS | TEAE: Lipid Metabolism and Deposit Disorders NEC | TEAE: Lower Respiratory Tract Signs and Symptoms | TEAE: Lymphadenopathy | TEAE: Lymphangitis and Lymphatic Disorders NEC | TEAE: Meniere's Disease | TEAE: Menorrhagia* | TEAE: Menstruation and Uterine Bleeding NEC* | TEAE: Menstruation with Decreased Bleeding* | TEAE: Middle Ear Disorders NEC | TEAE: Myocardial Infarction | TEAE: Neoplasms Benign Site Unspecified NEC | TEAE: Normal Pregnancy, Labour and Delivery* | TEAE: Ovarian Cancer NOS* | TEAE: Ovarian Neoplasms Malignant (Excl Germ Cell)* | TEAE: Paranasal Sinus Hypersecretion | TEAE: Pregnancy NOS* | TEAE: Pregnancy, Puerperium and Perinatal Conditions | TEAE: Premenstrual Syndrome* | TEAE: Productive Cough | TEAE: Proteinuria | TEAE: Refractive Errors NOS | TEAE: Refractive and Accommodative Disorders | TEAE: Reproductive Tract Signs and Symptoms NEC | TEAE: Respiratory Tract Congestion | TEAE: Respiratory Tract Disorders NEC | TEAE: Retinal Detachment | TEAE: Retinal Structural Change, Deposit and Degeneration | TEAE: Rhinitis Seasonal | TEAE: Rosacea | TEAE: Rosaceas | TEAE: Skin Injuries and Mechanical Dermatoses | TEAE: Skin Lesion NOS | TEAE: Stress Incontinence | TEAE: Supraventricular Arrhythmias | TEAE: Surgical and Medical Procedures | TEAE: Tachycardia NOS | TEAE: Thyroid Disorders NEC | TEAE: Thyroid Hypofunction Disorders | TEAE: Tinnitus | TEAE: Total Fluid Volume Decreased | TEAE: Urinary Incontinence | TEAE: Urinary Retention | TEAE: Urinary Tract Lithiasis (Excl Renal) | TEAE: Urine Abnormal NOS | TEAE: Urticaria NOS | TEAE: Urticarias | TEAE: Uterine Fibroids* | TEAE: Uterine Neoplasms Benign* | TEAE: Vaginal Cyst* | TEAE: Vaginal Lesion* | TEAE: Ventricular Arrhythmias and Cardiac Arrest | TEAE: Ventricular Extrasystoles | TEAE: Vertigo | TEAE: Vulvovaginal Cysts and Neoplasms*
0 n (%): TEAE: Lactose Intolerance | TEAE: Lethargy | TEAE: Libido Decreased | TEAE: Menstruation Irregular* | TEAE: Mental Disorders NEC | TEAE: Mental Status Changes | TEAE: Motion Sickness | TEAE: Nail and Nail Bed Conditions (Excl Infections and Infestations) | TEAE: Ocular Disorders NEC | TEAE: Ocular Nerve and Muscle Disorders | TEAE: Oedema NOS | TEAE: Ovarian Cystadenofibroma* | TEAE: Ovarian Neoplasms Benign* | TEAE: Panic Attack | TEAE: Panic Symptoms | TEAE: Papulosquamous Conditions | TEAE: Partial Vision Loss | TEAE: Pelvic Pain NOS | TEAE: Penile Disorders NEC (Excl Erection and Ejaculation)* | TEAE: Penile Haemorrhage* | TEAE: Perception Disturbances | TEAE: Peripheral Embolism NOS | TEAE: Peripheral Embolism and Thrombosis | TEAE: Polydipsia | TEAE: Polyuria | TEAE: Posterior Capsule Opacification | TEAE: Postnasal Drip | TEAE: Premenopause* | TEAE: Psoriasis | TEAE: Psychotic Disorder NEC | TEAE: Psychotic Disorder NOS | TEAE: Rash Macular | TEAE: Sexual Desire Disorders | TEAE: Sick Sinus Syndrome | TEAE: Sinus Arrhythmia | TEAE: Skin Disorder NOS | TEAE: Skin Neoplasms Benign | TEAE: Skin Ulcer | TEAE: Skin and Subcutaneous Tissue Ulcerations | TEAE: Social Circumstances | TEAE: Strabismus | TEAE: Stress Symptoms | TEAE: Structural and Other Bile Duct Disorders | TEAE: Sugar Intolerance (Excl Glucose Intolerance) | TEAE: Suicidal Ideation | TEAE: Suicidal and Self-Injurious Behaviour | TEAE: Supraventricular Tachycardia | TEAE: Sweating Increased | TEAE: Swelling Face | TEAE: Tenderness NOS | TEAE: Thrombocytopenia | TEAE: Thrombocytopenias | TEAE: Thrombophlebitis Superficial | TEAE: Thyroid Neoplasms | TEAE: Thyroid Nodule | TEAE: Tympanic Membrane Disorder NOS | TEAE: Tympanic Membrane Disorders (Excl Infections) | TEAE: Urinary Tract Signs and Symptoms NEC | TEAE: Vascular Hypotensive Disorders | TEAE: Visual Acuity Reduced | TEAE: Vitreous Disorder NOS | TEAE: Vulvovaginal Dryness*
12 (5%) n (%): TEAE: Reproductive System and Breast Disorders
7 (3%) n (%): TEAE: Nasal Congestion and Inflammations
8 (3%) n (%): TEAE: Vascular Hypertensive Disorders NEC
14 (5%) n (%): TEAE: Skin and Subcutaneous Tissue Disorders
2 (1%) n (%): TEAE: Menstruation with Increased Bleeding* | TEAE: Uterine Disorders NEC* | TEAE: Uterine Neoplasms* | TEAE: Uterine Polyp NOS*
